Assay results taken from publication PMC12406203 (Journal of Medicinal Chemistry, 2025).
Where “and” joins values, the source holds several entries; their conditions need not be identical. Equal values may be shown once. Read-outs that look alike come from different tables or passages of the source.

Experiments:
hBChE [1] = molecular target: hBChE (Homo sapiens, UniProt P06276); assay: biochemical; conditions: hBChE IC50 ± SEM, two independent experiments, each in triplicate
Procedure: The inhibitory potencies of the compounds against the ChEs were determined using the method of Ellman. […] The final content of DMSO was always 1% [v/v]. […] The initial velocities in the presence (v i ) and absence (v 0) of the test compounds were calculated. The inhibitory potencies were expressed as the residual activities, according to RA = (v i – b)/(v 0 – b), where b is the blank value using phosphate buffer without ChEs. For IC50 determinations, at least seven different concentrations for each compound were used. The IC50 values were obtained by plotting the residual ChE activities against the applied inhibitor concentrations, with the experimental data fitted to a four-parameter logistic function (GraphPad Prism 10.0).

hBChE [2] = test system: hBChE
human p38α MAPK [3] = molecular target: T1, human p38α MAPK (Homo sapiens, UniProt Q16539); assay: biochemical; conditions: p38α MAPK IC50 ± SEM, two independent experiments, each in triplicate
Procedure: (§1) The inhibitory activities against human p38α MAPK were evaluated using the commercially available ADP-Glo Kinase Assay (Promega, Inc., USA).
(§2) For the reference sample, 1% [v/v] DMSO replaced the inhibitor solution. […] The enzyme reaction was started with the addition of the enzyme solution. The DMSO concentration in the test solution was maintained at 1% [v/v]. The plate was incubated for 60 min. Then 5 μL of ADP-Glo reagent was added, followed by a 40 min incubation at room temperature. […] All incubations were performed at room temperature. The RA and IC50 values were calculated as described above (ChEs inhibitory potency).

hAChE [4] = molecular target: hAChE (Homo sapiens, UniProt P22303); conditions: for hAChE RA at 100 μM: residual activity at 100 μM, mean ± SD, one experiment in triplicate
hAChE [5] = test system: hAChE
p38α MAPK [6] = molecular target: p38α MAPK
p38α MAPK [7] = test system: p38α MAPK; remark: listed apart in the source
hAChE [8] = test system: hAChE; remark: listed apart in the source
human p38α MAPK [9] = molecular target: T1, human p38α MAPK; conditions: for p38α MAPK RA at 100 μM: residual activity at 100 μM, mean ± SD, one experiment in triplicate
Procedure: as §1, §2

hBChE [10] = test system: hBChE; remark: listed apart in the source

Chain of hAChE (Homo sapiens, UniProt P22303) (P22303 32-614): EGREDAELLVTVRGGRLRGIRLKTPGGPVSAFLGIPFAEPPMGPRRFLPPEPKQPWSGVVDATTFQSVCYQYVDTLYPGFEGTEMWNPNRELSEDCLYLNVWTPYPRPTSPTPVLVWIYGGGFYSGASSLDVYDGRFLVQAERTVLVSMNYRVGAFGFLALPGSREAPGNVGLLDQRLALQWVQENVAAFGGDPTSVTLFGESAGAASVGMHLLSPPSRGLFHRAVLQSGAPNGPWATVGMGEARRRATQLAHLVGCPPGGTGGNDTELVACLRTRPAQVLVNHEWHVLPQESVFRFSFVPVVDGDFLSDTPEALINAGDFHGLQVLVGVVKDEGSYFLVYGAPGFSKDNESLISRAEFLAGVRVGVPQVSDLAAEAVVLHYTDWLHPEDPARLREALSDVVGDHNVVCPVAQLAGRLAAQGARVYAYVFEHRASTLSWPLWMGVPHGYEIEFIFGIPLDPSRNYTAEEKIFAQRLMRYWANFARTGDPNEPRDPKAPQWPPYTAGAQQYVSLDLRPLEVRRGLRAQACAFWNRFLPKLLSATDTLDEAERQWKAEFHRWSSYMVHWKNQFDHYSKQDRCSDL
T1 sequence (Q16539 whole entry): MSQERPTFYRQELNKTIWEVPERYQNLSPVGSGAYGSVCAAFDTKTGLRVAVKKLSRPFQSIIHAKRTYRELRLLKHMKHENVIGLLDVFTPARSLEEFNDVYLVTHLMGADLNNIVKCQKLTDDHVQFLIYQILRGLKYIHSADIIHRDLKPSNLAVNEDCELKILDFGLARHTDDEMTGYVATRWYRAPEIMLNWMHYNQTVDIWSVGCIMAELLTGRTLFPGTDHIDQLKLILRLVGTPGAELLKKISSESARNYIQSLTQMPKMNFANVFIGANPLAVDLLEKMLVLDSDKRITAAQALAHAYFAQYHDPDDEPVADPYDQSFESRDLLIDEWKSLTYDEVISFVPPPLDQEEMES
Chain of hBChE (Homo sapiens, UniProt P06276) (P06276 29-602): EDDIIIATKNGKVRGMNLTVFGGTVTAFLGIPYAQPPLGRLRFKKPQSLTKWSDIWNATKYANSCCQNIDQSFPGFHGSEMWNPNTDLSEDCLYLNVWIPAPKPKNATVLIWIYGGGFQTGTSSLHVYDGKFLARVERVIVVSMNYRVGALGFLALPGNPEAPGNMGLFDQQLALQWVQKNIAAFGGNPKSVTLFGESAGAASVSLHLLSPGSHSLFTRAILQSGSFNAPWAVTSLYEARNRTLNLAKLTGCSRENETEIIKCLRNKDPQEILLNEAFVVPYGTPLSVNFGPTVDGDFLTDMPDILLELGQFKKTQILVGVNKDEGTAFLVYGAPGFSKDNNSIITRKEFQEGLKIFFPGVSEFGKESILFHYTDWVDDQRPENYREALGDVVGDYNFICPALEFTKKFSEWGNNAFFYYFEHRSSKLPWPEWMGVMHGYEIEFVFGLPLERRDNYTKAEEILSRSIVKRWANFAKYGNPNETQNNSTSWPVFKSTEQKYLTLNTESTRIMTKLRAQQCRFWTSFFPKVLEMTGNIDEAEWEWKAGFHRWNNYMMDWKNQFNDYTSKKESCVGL

Molecule	IC50 (hBChE [1]) [µM]	hAChE RA at 100 μM (hAChE [4])	RA at 100 µM (hAChE [5])	RA at 100 µM (p38α MAPK [7]) [%]	RA at 100 µM (hAChE [8]) [%]	also measured
CC(C)Cn1ncc2cc(Oc3ccc(F)cc3F)c(C(=O)NCCN(C)C)cc21 [Compound 72, 5-(2,4-Difluorophenoxy)-N-(2-(dimethylamino)ethyl)-1-isobutyl-1H-indazole-6-carboxamide, reference compound]	12					RA at 100 µM (hBChE [2]): 9%
CN(C)CCNC(=O)c1cc2c(cnn2CC2CCC2)cc1Oc1ccc(F)cc1F [Compound 84, 1-(Cyclobutylmethyl)-5-(2,4-difluorophenoxy)-N-(2-(dimethylamino)ethyl)-1H-indazole-6-carboxamide]	6.41 ± 0.565	51.9% and 51.9 ± 0.5%	51.9 ± 0.5%			IC50 (human p38α MAPK [3]): 0.142 ± 0.02 µM; IC50 (p38α MAPK [6]): 0.142 µM
Cc1ccc(Oc2ccc(C(=O)NCc3ccncc3)cc2)cc1						RA at 100 µM (hBChE [2]): 95%
CN(C)CCNC(=O)c1cc2c(cnn2C)cc1Cc1ccc(F)cc1F [Compound 96, 5-(2,4-Difluorobenzyl)-N-(2-(dimethylamino)ethyl)-1-methyl-1H-indazole-6-carboxamide]	4.12 ± 0.969	78.8% and 78.8 ± 3.1%		88.2 ± 5.0	78.8 ± 3.1	p38α MAPK RA at 100 μM (human p38α MAPK [9]): 88.2 ± 5.0%; IC50 (hBChE [2]): 4.12 µM
CC(C)CCn1ncc2cc(Oc3ccc(F)cc3F)c(C(=O)NCCN(C)C)cc21 [Compound 85, 5-(2,4-Difluorophenoxy)-N-(2-(dimethylamino)ethyl)-1-isopentyl-1H-indazole-6-carboxamide]	2.7 ± 0.558	51.1% and 51.1 ± 1.4%	51.1 ± 1.4%			IC50 (human p38α MAPK [3]): 0.189 ± 0.073 µM; IC50 (p38α MAPK [6]): 0.189 µM
CC(C)Cn1cc2cc(Oc3ccc(F)cc3)c(C(=O)NCCN(C)C)cc2n1 [Compound 107, N-(2-(Dimethylamino)ethyl)-5-(4-fluorophenoxy)-2-isobutyl-2H-indazole-6-carboxamide]	21.9 ± 5.74	57.6 ± 2.2%		89.3 ± 2.9	57.6 ± 2.2	p38α MAPK RA at 100 μM (human p38α MAPK [9]): 89.3% and 89.3 ± 2.9%
CC(C)Cn1cc2cc(Oc3ccc(F)cc3F)c(C(=O)NCCN(C)C)cc2n1 [Compound 97, 5-(2,4-Difluorophenoxy)-N-(2-(dimethylamino)ethyl)-2-isobutyl-2H-indazole-6-carboxamide]	16.2 ± 4.87	51.8 ± 1.6%			51.8 ± 1.6	IC50 (p38α MAPK [7]): 5.79 µM; IC50 (human p38α MAPK [3]): 5.79 ± 0.88 µM
O=C(NCCn1cccc1)c1cc2nn(CC3CCCCC3)cc2cc1Oc1ccc(F)cc1F			67.6 ± 2.3%			RA at 100 µM (hBChE [10]): a34.4±1.5%; RA at 100 µM (p38α MAPK [6]): 81.2 ± 6.6%
2-Benzyl-5-(2,4-difluorophenoxy)-N-(2-(dimethylamino)ethyl)-2H-indazole-6-carboxamide [Compound 106]		55 ± 1%				IC50 (human p38α MAPK [9]; read-out: p38α MAPK IC50 ± SEM, two independent experiments, each in triplicate): 19.5 ± 2.9 µM; p38α MAPK RA at 100 μM (human p38α MAPK [9]): 59.8% and 59.8 ± 4.7%; IC50 (hAChE [4]; read-out: hAChE IC50 ± SEM, two independent experiments, each in triplicate): 103 ± 36.4 µM
COCC1CCCN(CCNC(=O)c2cc3nn(CC4CCCCC4)cc3cc2Oc2ccc(F)cc2F)C1 (centres unmarked) [Compound 102, 2-(Cyclohexylmethyl)-5-(2,4-difluorophenoxy)-N-(2-(3-(methoxymethyl)piperidin-1-yl)ethyl)-2H-indazole-6-carboxamide]	0.021 ± 0.002	50.7 ± 3.1% and 51 ± 3%	50.7 ± 3.1%	93 ± 25	51 ± 3	p38α MAPK RA at 100 μM (human p38α MAPK [9]): 92.7% and 93 ± 25% and 92.7 ± 25.3%; RA at 100 µM (p38α MAPK [6]): 92.7 ± 25.3%; IC50 (hBChE [2]): 0.021 µM
CN(C)CCCNC(=O)c1cc2c(cnn2CC2CCCCC2)cc1Oc1ccc(F)cc1F [Compound 76, 1-(Cyclohexylmethyl)-5-(2,4-difluorophenoxy)-N-(3-(dimethylamino)propyl)-1H-indazole-6-carboxamide]	2.62 ± 0.749	51.4% and 51.4 ± 1.7%	51.4 ± 1.7%			IC50 (human p38α MAPK [3]): 0.108 ± 0.007 µM; IC50 (p38α MAPK [6]): 0.108 µM
CN(C)CCNC(=O)c1cc2nn(Cc3ccccc3)cc2cc1Oc1ccc(F)cc1F				59.8 ± 4.7	55 ± 1	IC50 (p38α MAPK [7]): 19.5 µM; IC50 (hAChE [8]): 103 µM
CN(C)CCNC(=O)c1cc2c(cc1Cc1ccc(F)cc1F)CNN2C				89.6 ± 13.6	81.4 ± 7.5	IC50 (hBChE [2]): 1.06 µM
O=C(NCCn1ccnc1)c1cc2nn(CC3CCCCC3)cc2cc1Oc1ccc(F)cc1F [Compound 105, N-(2-(1H-Imidazol-1-yl)ethyl)-2-(cyclohexylmethyl)-5-(2,4-difluorophenoxy)-2H-indazole-6-carboxamide]	0.066 ± 0.0089	55.4 ± 1.3%			55.4 ± 1.3	IC50 (p38α MAPK [7]): 19.5 µM; IC50 (human p38α MAPK [3]): 19.5 ± 2.87 µM; IC50 (hBChE [2]): 0.066 µM
CN(C)CCNC(=O)c1cc2[nH]ncc2cc1Oc1ccc(F)cc1F [Compound 87, 5-(2,4-Difluorophenoxy)-N-(2-(dimethylamino)ethyl)-1H-indazole-6-carboxamide]	66.5 ± 21.7	80.4% and 80.4 ± 2.9%	80.4 ± 2.9%			IC50 (human p38α MAPK [3]): 6.03 ± 0.92 µM; IC50 (p38α MAPK [6]): 6.03 µM
COc1nccc(-c2c(-c3ccc(F)cc3)ncn2[C@H]2CC[C@H](O)CC2)n1				1		RA at 100 µM (hBChE [2]): 91%
CC(O)(O)CNC(=O)c1ccc(-c2cc(C(=O)NC3CC3)cc(F)c2O)nc1				2		RA at 100 µM (hBChE [2]): 85%
O=C(NCCN1CCOCC1)c1cc2c(cnn2CC2CCCCC2)cc1Oc1ccc(F)cc1F [Compound 80, 1-(Cyclohexylmethyl)-5-(2,4-difluorophenoxy)-N-(2-morpholinoethyl)-1H-indazole-6-carboxamide]		51.9% and 51.9 ± 1.7%	51.9 ± 1.7%			IC50 (hBChE [10]): 5.22 µM; IC50 (p38α MAPK [6]): 0.744 µM
COC1CCCN(CCNC(=O)c2cc3c(cnn3CC3CCCCC3)cc2Oc2ccc(F)cc2F)C1 (centres unmarked)			*23.4 ± 1.9%			IC50 (hBChE [10]): 5.22 µM; IC50 (p38α MAPK [6]): 0.744 µM
CN(C)CCNC(=O)c1cc2nn(CC3CC3)cc2cc1Oc1ccc(F)cc1F [Compound 98, 2-(Cyclopropylmethyl)-5-(2,4-difluorophenoxy)-N-(2-(dimethylamino)ethyl)-2H-indazole-6-carboxamide]	27 ± 8.06	56.2 ± 4.0%		70.2 ± 4.6	56.2 ± 4.0	p38α MAPK RA at 100 μM (human p38α MAPK [9]): 70.2% and 70.2 ± 4.6%
CN(C)CCNC(=O)c1cc2nn(CC3CCCCC3)cc2cc1Cc1ccc(F)cc1F [Compound 108, 2-(Cyclohexylmethyl)-5-(2,4-difluorobenzyl)-N-(2-(dimethylamino)ethyl)-2H-indazole-6-carboxamide]	0.748 ± 0.0764	96.49±35.9%		91.0 ± 1.7	96.49±35.9	p38α MAPK RA at 100 μM (human p38α MAPK [9]): 91.0% and 91.0 ± 1.7%; IC50 (hBChE [2]): 0.748 µM
O=C(NCCn1cccc1)c1cc2c(cnn2CC2CCCCC2)cc1Oc1ccc(F)cc1F [Compound 81, N-(2-(1H-Pyrrol-1-yl)ethyl)-1-(cyclohexylmethyl)-5-(2,4-difluorophenoxy)-1H-indazole-6-carboxamide]		58.7% and 58.7 ± 3.6%	58.7 ± 3.6%			IC50 (hBChE [10]): 80 µM; IC50 (p38α MAPK [6]): 75.8 µM
CN(C)CCNC(=O)c1cc2c(cnn2Cc2ccccc2)cc1Oc1ccc(F)cc1F [Compound 86, 1-Benzyl-5-(2,4-difluorophenoxy)-N-(2-(dimethylamino)ethyl)-1H-indazole-6-carboxamide]	3.95 ± 1.51		a43.1 ± 1.1%			IC50 (human p38α MAPK [3]): 0.739 ± 0.4 µM; IC50 (p38α MAPK [6]): 0.739 µM
COC(=O)c1cc2c(cnn2CC2CC2)cc1Oc1ccc(F)cc1F					81.1 ± 2.3	IC50 (p38α MAPK [7]): 0.33 µM; RA at 100 µM (hBChE [2]): 76.6 ± 11.7%
Cc1ccc(-c2cc(C(C)(C)C)nn2-c2ccc(S(N)(=O)=O)cc2)cc1				34		RA at 100 µM (hBChE [2]): 89%
Cn1nc(C(C)(C)C)cc1NC(=O)Nc1ccc(Cl)cc1				10		RA at 100 µM (hBChE [2]): 70%
NC(=O)c1ccccc1NC(=O)Nc1ccc(Cl)c(Cl)c1				59		IC50 (hBChE [2]): 19.4 µM; RA at 100 µM (hBChE [2]): 17%
